Data set [1] has as its system mouse spleen cells. The experiment in a line: Suppression of mitogen (ConA) reaction. Format: cell-based, C57BL/6 mouse. The note with it: 48 hours, 3 cases, read-out: Suppression Rate of Mitogen Reaction; for inhibition at 1 µg/mL: 1 μg/ml; for inhibition at 10 µg/mL: 10 μg/ml; for inhibition at 50 µg/mL: 50 μg/ml. The protocol:
If mouse spleen cells are cultured in vitro in the presence of concanavalin A (hereinafter referred to as "ConA" for short), the cells are divided and proliferated (mitogen reaction). In this system, the immunosuppressive agent of the present invention or cyclosporin A as a comparative example was added to the culture medium and the effects to the mitogen reaction were examined.
More particularly, C57BL/6 mouse was sacrificed and the spleen was removed. The spleen cells were suspended in RPMI 1640 culture medium containing 10% fetal calf serum (hereinafter referred to as "RPMI 1640" for short) so as to prepare a spleen cell suspension (5×10^6 cells/ml). In the wells of a flat-bottomed 96-well microplate, 100 μl of the suspension was placed and then 50 μl of RPMI 1640 containing ConA (4 μg/ml) as well as 50 μl of RPMI 1640 containing the test compound in the concentration shown in Table 2 were added. The cells were cultured for 48 hours (37° C. 5%CO2) As a control, 50 μl of RPMI 1640 was added. Eight hours before the termination of the culture, 2 μ Ci of [^3 H] thymidine was […], added. After termination of the culture, the cells were collected on a filter paper by using a cell harvester. After drying the filter paper, the filter paper was placed in a vial containing toluene-based scintillator and the radioactivity was measured by a liquid scintillation counter.
The suppression rate of mitogen reaction was calculated according to the following equation: [formula]

Data set [2] concerns the target T1, δ receptor (Mus musculus, UniProt P32300).
T1 construct: from tissue; host or cells: mouse vas deferens, isolated, electrically stimulated
The data set is described as follows: Antagonism of DADLE (δ) in electrically stimulated isolated organ (vas deferens). Format: cell-based. The note with it: for κ/δ / μ/δ: Ke selectivity ratio; for κ/δ / μ/δ / selectivity to the δ receptors with respect to κ receptors / selectivity to the δ receptors with respect to μ receptors: Table 1; for concentration dependency of antagonistic activity: δ receptor, FIGS. 1 and 2; for Slope / γ / Kb: δ, in vitro; for Kb: read-out: pA2 (50% Confidence Limit) (converted). Here is the method: (§1) The term "δ-opioid antagonist" herein used-means a group of compounds which suppress the inhibition by DADLE or DPDPE of contraction of MVD specimen caused by electric stimulation.
(§2) Ke=[antagonist]/(IC50 ratio -1)
(§3) The IC50 ratio used herein is the value obtained by dividing the IC50 of an agonist, which is measured in the presence of an antagonist, with the IC50 value of the […], that is measured in the absence of the antagonist. Ke value is a value which is introduced for compensating the concentration of antagonist when comparing the IC50 ratio. Thus, the smaller the Ke value, the stronger the antagonist activity.
(§4) The antagonistic activities of the naloxindole hydrochloride and the naltrindole methanesulfonic acid salt obtained in Examples 1 and 3 were determined by the following method:
(§5) Guinea pig ileum (containing μ and κ receptors) and mouse vas deferens were taken out and the organs were subjected to electric stimulations. The activities of the compounds for inhibiting the suppression of contraction of the organs by three agonists, that is, morphine (μ), EKC (κ) and DADLE (δ) were measured.

The test system of data set [3] is graft versus host reaction. The experiment in a line: Suppression of graft versus host reaction. Format: in vivo, mouse (BDF1; C57BL/6 spleen cells). The note with it: oral; for Suppression Rate of Graft versus Host Reaction: 100 mg/kg, once a day for 5 days, lymph node weight day 7, 4 cases, ** significance level < 0.02 (NTB), * < 0.05 (NTI); for graft versus host reaction: in words. Here is the method: It is known that a graft versus host reaction occurs when spleen cells of a parent are transplanted to F1 mouse. In this system, NTI, NTB or cyclosporine A was administered to F1 mouse and the effects of these compounds on the graft versus host reaction were examined.
C57BL/6 mouse was sacrificed and the spleen was removed. Using phosphate buffered saline, a suspension of spleen cells (2×10^8 cells/ml) was prepared. To plantar of left hind leg of BDF1 mice, 50 μl of this spleen cell suspension was subcutaneously injected. From the day of this injection, each test compound was administered once a day for 5 days. The dose was 100 mg/kg and suspensions of the test compounds in 0.5% carboxymethyl cellulose (hereinafter referred to as "CMC") were orally administered. To the control group, 0.5% CMC alone was administered in the same manner. On the 7th day from the day of injection of the spleen cells, the mice were sacrificed and popliteal lymph nodes of right and left hind legs were removed and the weight of the lymph nodes was measured. The difference between the weight of the lymph nodes of the right and left hind legs was calculated and the difference was used as an index of the graft versus host reaction. The obtained results were analyzed by Student's t-test.
The suppression rate of graft versus host reaction was calculated according to the following equation: [formula]

The target of data set [4] is T2, κ receptor (Cavia porcellus, UniProt P41144).
T2 construct: from tissue; host or cells: guinea pig ileum, isolated, electrically stimulated
The experiment in a line: Antagonism of EKC (κ) in electrically stimulated isolated organ. Format: cell-based, Guinea pig. The note with it: for concentration dependency of antagonistic activity: κ receptor, FIGS. 1 and 2; for Slope / γ / Kb: κ, in vitro; for Kb: NLI value is mean ± S.E., read-out: pA2 (50% Confidence Limit) (converted). Here is the method:
as §1, §2, §3, §4, §5

Data set [5] concerns the target T3, μ receptor (Cavia porcellus, UniProt A0ACM8Q262).
T3 construct: antagonism of morphine
The data set is described as follows: Antagonism of morphine (μ) in electrically stimulated isolated organ. Format: cell-based, Guinea pig. The note with it: for concentration dependency of antagonistic activity: μ receptor, FIGS. 1 and 2; for Slope / γ / pA2 (50% Confidence Limit): μ, in vitro; for pA2 (50% Confidence Limit): NLI value is mean ± S.E. Here is the method:
as §1, §2, §3, §4, §5

Data set [6] relates to spleen cells. The data set is described as follows: Suppression of MLR reaction. The class given is cell-based, mouse (C57BL/6 and mitomycin-treated Balb/c). The note with it: for inhibition at 1 µg/mL / inhibition at 10 µg/mL / inhibition at 50 µg/mL: Mus musculus, 72 hours, 3 cases, NTI, NTB, NLI as hydrochloric acid salt, read-out: Suppression Rate of MLR Reaction; for inhibition at 1 µg/mL: 1 μg/ml; for inhibition at 10 µg/mL: 10 μg/ml; for inhibition at 50 µg/mL: 50 μg/ml; for MLR reaction: in words, hydrochloric acid salts. The protocol:
If spleen cells from two different lines of mouse which are genetically different, the spleen cells recognize the other type of cells, and the cells are divided and proliferated (MLR reaction).
In this system, hydrochloric acid salt of NTI, NTB or NLI, or for comparison, cyclosporine A was added to the reaction medium and their effect to the MLR reaction was examined.
Balb/c mouse was sacrificed and the spleen was removed. The spleen cells were suspended in RPMI 1640 to prepare a spleen cell suspension (1×10^7 cells/ml). The spleen cells were then cultured in mitomycin C-containing RPMI 1640 for 30 minutes (37° C.) so as to carry out the mitomycin treatment. On the other hand, C57BL/6 mouse was sacrificed and spleen cell suspension (1×10^6 cells/ml) was prepared using RPMI 1640.
In the wells of a 96-well flat-bottomed microplate, 100 μl of C57BL/6 mouse spleen cell suspension, 50 μl of mitomycin-treated Balb/c mouse spleen cell suspension and 50 μl of RPMI 1640 containing the test compound were placed and the cells were cultured for 72 hours (37° C., 5%CO2). As a control, 50 μl of RPMI 1640 was added. Eight hours before the termination of the culture, 2 μCi of [^3 H] thymidine was added. After termination of the culture, the cells were collected on a filter paper by using a cell harvester. After drying the filter paper, the filter paper was placed in a vial containing toluene-based scintillator and the radioactivity was measured by a liquid scintillation counter.
The suppression rate of MLR reaction was calculated according to the following equation: [formula]

For data set [7] the following is noted: in words; cited from earlier work.
For data set [8] the following is noted: in words; cited from earlier work. The source holds these as a separate data set.

SMILES strings stand for the structures.

T3 sequence (A0ACM8Q262 1-400): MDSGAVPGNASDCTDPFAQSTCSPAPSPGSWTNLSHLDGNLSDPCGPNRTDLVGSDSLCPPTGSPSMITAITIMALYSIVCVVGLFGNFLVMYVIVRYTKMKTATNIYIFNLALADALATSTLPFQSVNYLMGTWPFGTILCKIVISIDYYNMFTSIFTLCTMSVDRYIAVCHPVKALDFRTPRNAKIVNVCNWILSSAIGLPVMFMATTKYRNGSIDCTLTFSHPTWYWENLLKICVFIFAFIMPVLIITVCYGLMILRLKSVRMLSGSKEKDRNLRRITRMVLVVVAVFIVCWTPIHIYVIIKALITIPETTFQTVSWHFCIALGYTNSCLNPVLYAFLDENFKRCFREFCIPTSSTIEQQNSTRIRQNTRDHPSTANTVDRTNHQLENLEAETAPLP
T1 sequence (P32300 whole entry): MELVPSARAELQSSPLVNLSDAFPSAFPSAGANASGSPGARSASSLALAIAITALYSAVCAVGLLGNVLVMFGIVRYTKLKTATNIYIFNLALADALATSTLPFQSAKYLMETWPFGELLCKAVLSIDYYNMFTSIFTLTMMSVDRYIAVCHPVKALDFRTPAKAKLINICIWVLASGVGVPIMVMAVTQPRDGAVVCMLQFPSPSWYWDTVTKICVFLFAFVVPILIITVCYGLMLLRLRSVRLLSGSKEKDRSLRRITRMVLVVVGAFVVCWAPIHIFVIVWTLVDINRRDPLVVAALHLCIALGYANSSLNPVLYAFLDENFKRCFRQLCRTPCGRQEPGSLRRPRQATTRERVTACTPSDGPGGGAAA
T2 sequence (P41144 whole entry): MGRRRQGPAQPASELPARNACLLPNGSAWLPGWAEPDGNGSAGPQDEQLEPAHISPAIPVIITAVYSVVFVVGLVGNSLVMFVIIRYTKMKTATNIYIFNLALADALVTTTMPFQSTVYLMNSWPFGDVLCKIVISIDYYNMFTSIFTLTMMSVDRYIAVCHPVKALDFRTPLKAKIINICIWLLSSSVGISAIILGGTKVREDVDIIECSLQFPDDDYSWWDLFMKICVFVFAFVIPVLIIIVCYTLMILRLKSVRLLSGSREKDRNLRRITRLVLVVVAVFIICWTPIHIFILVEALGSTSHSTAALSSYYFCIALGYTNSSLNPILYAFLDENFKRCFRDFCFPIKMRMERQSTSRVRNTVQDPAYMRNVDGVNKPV

Turning to `Oc1ccc2c3c1O[C@H]1c4[nH]c5ccccc5c4C[C@@]4(O)[C@@H](C2)N(CC2CC2)CC[C@]314` [NTI, naltrindole], in data set [1], the inhibition at 1 µg/mL came to 12%, the inhibition at 10 µg/mL came to 77% and the inhibition at 50 µg/mL was determined as 100%. Besides, in data set [2], the κ/δ was 104, the μ/δ is reported as 91, the “selectivity to the δ receptors with respect to κ receptors” value is recorded as “about 100 times” and the “selectivity to the δ receptors with respect to μ receptors” value was “about 100 times”. For the same compound, in data set [2], the “concentration dependency of antagonistic activity” value (shortened to “concentration dependency”) is given as “increases proportionally with its concentration”, the Slope worked out at 1.354, the γ amounted to 0.863 and the Kb is 0.417 nM. Also, in data set [3], the “Suppression Rate of Graft versus Host Reaction” value was 47% and the “graft versus host reaction” value is “suppressed”. In data set [4], the “concentration dependency” value was “increases proportionally with its concentration”, the Slope amounted to 1.807, the γ worked out at 0.941 and the Kb was 43.7 nM. Further, in data set [5], the “concentration dependency” value is “increases proportionally with its concentration”, the Slope was found to be 1.330, the γ was 0.791 and the “pA2 (50% Confidence Limit)” value is listed as 7.42 (7.26-7.58). Moreover, in data set [6], the inhibition at 1 µg/mL is 0%, the inhibition at 10 µg/mL was determined as 100%, the inhibition at 50 µg/mL is 100% and the MLR reaction result is “suppressed”.

Take `Oc1ccc2c3c1O[C@H]1c4oc5ccccc5c4C[C@@]4(O)[C@@H](C2)N(CC2CC2)CC[C@]314` [NTB, naltrbenzofuran]: in data set [1], the inhibition at 1 µg/mL stood at 14%, the inhibition at 10 µg/mL came out at 41% and the inhibition at 50 µg/mL came out at 100%. Further, in data set [3], the “Suppression Rate of Graft versus Host Reaction” value is reported as 44% and the “graft versus host reaction” value is listed as “suppressed”. Also, in data set [6], the inhibition at 1 µg/mL was 5%, the inhibition at 10 µg/mL is 81%, the inhibition at 50 µg/mL is 100% and the MLR reaction result is “suppressed”.

As for `C=CC[C@@H]1/C=C(\C)C[C@H](C)C[C@H](OC)[C@H]2O[C@@](O)(C(=O)C(=O)N3CCCC[C@H]3C(=O)O[C@H](/C(C)=C/[C@@H]3CC[C@@H](O)[C@H](OC)C3)[C@H](C)[C@@H](O)CC1=O)[C@H](C)C[C@@H]2OC` [FK-506], in data set [7], the toxicity to kidney entry is reported as “stronger toxicity to kidney than cyclosporine A”. Also, in data set [8], the toxicity to liver result was “strong toxicity to liver”.

Regarding `C=CCN1CC[C@]23c4c5ccc(O)c4O[C@H]2c2[nH]c4ccccc4c2C[C@@]3(O)[C@H]1C5` [NLI, naloxindole], in data set [1], the inhibition at 1 µg/mL came out at 12%, the inhibition at 10 µg/mL came out at 56% and the inhibition at 50 µg/mL came to 100%. Further, in data set [2], the κ/δ is reported as 407, the μ/δ turned out to be 251, the “selectivity to the δ receptors with respect to κ receptors” value is given as “about 400 times” and the “selectivity to the δ receptors with respect to μ receptors” value is recorded as “about 250 times”. Also, in data set [2], the “concentration dependency” value was “concentration-dependent”, the Slope is listed as 1.066, the γ came out at 0.936 and the Kb is 0.55 nM. Moreover, the “affinity to δ receptors” value in data set [2] (in words, NLI vs NTI) is given as “slightly inferior to NTI”. In data set [4], the “concentration dependency” value is on record as “did not show dependency on the concentration”, the Slope stood at 0.105, the γ is given as 0.149 and the Kb is 141 nM. Moreover, in data set [5], the “concentration dependency” value is given as “did not show dependency on the concentration”, the Slope is reported as -0.063, the γ was -0.062 and the “pA2 (50% Confidence Limit)” value turned out to be 6.86 ± 0.01. Besides, in data set [6], the inhibition at 1 µg/mL stood at 22%, the inhibition at 10 µg/mL worked out at 95%, the inhibition at 50 µg/mL turned out to be 100% and the MLR reaction entry was “suppressed”.

The values above are taken from patent US5332818A, “Immunosuppressive agent and process of producing the same” (Toray Industries, Inc., priority 1989, dated 1994).
